Article PMC5120274, “Characterization of the Annonaceous acetogenin, annonacinone, a natural product inhibitor of plasminogen activator inhibitor-1” (Scientific Reports, 2016)

Legend:
PAI-1 R118A = tested on: T1, PAI-1 R118A; experiment: chromogenic screening assay with PAI-1 mutant R118A; format: biochemical
T1 construct: made in house
Protocol: (§1) Compounds from our local collection BioCIS and from the Prestwick compound library (Prestwick chemicals, Illkirch, FR), a collection containing only FDA approved drugs (around 4000 compounds in total) were tested in a chromogenic assay measuring the inhibition rate of tPA-catalyzed spectrozyme® tPA hydrolysis in the presence of PAI-1. Compounds (20 μL, final concentration 50 μM, 1% DMSO) were dispensed in a 96 well half area Greiner plate. A mixture containing 20 μL of PAI-1 (final concentration 20 nM) and 80 μL of Spectrozyme-tPA (final concentration 400 μM) was then added, and the mixture pre-incubated for 45 minutes at 37 °C. At the end of pre-incubation time, 90 μL of the mixture were added to another 96 well half area plate containing 10 μL tPA (final concentration 10 nM). The kinetic was then measured at 405 nm for 45 min at 37 °C in an Envision microplate reader. Progress curves were fitted using the pseudo first order equation to determine the apparent rate constant k.
(§2) Mutants were constructed as previously described. […] The effect of annonacinone was measured at 50 μM for each mutant in our chromogenic screening assay. […] For each mutant, the ratio between the apparent rate constants with and without 50 μM annonacinone were calculated and then compared to that of PAI-1 WT to determine the % of annonacinone activity.

PAI-1 [1] = tested on: T2, PAI-1; experiment: elastase mediated cleavage of PAI-1 (latency transition) on SDS-PAGE; format: biochemical, human; conditions: up to 50 μM
T2 construct: purchased Stago BNL (Asnières sur Seine, FR)
Protocol: Selective cleavage of active PAI-1 by elastase was observed on SDS-PAGE. PAI-1 (5 μL, 2 μM) was incubated with or without compounds (200 μM, 5 μL, 5% DMSO) for 15 min at 37 °C. Elastase (5 μL, 1.4 μM) was then added and further incubated for 15 min at 37 °C. Reaction was stopped by addition of 4X loading buffer containing SDS and BME followed by immediate boiling. Samples were then analyzed on SDS-PAGE followed by silver staining.

PAI-1 [2] = molecular target: T3, PAI-1 (Homo sapiens, UniProt P05121); experiment: chromogenic screening assay: rate of tPA inhibition by PAI-1 (spectrozyme tPA hydrolysis); format: biochemical; conditions: mean ± SEM
T3 construct: purchased Stago BNL (Asnières sur Seine, FR)
Protocol: as §1

PAI-1/tPA complex = tested on: T4, PAI-1/tPA complex; experiment: PAI-1/tPA complex formation on SDS-PAGE; format: biochemical, human; conditions: PAI-1 pre-incubated with annonacinone 30 min 37 °C
T4 construct: purchased Stago BNL (Asnières sur Seine, FR)
Protocol: PAI-1 (4 μL, 1 μM) was pre-incubated with 16 μL annonacinone (2% DMSO) for 30 min at 37 °C. Human tPA (4 μL, 0.5 μM) was then added to the mixture and incubated for 15 min at 37 °C. Reaction was stopped by addition of 4X SDS-PAGE loading buffer followed by immediate boiling. Samples were then analyzed on SDS-PAGE followed by silver staining.

human antithrombin = tested on: T5, human antithrombin; experiment: continuous chromogenic assay: fondaparinux-catalyzed inhibition of factor Xa by antithrombin; format: biochemical; conditions: antithrombin pre-incubated with 50 μM annonacinone 20 min 37 °C; control buffer 7.9 × 10^−3
T5 construct: purchased LFB (Aclotin)
Protocol: 5 μM human α1-antitrypsin (Sigma) or human antithrombin (Aclotin®, LFB) were incubated with 50 μM annonacinone (or 0.5% DMSO in reaction buffer as control) for 20 min at 37 °C. The mixtures containing α1-antitrypsin were diluted in N-Methoxysuccinyl-Ala-Ala-Pro-Val p-nitroanilide (Sigma) containing solution and substrate hydrolysis kinetic was triggered by addition of neutrophil elastase (Sigma) to a final volume of 100 μL containing 13 nM α1-antitrypsin, 130 nM annonacinone, 82 μM chromogenic substrate and 5 nM neutrophil elastase. The mixtures containing antithrombin were diluted in fondaparinux (Arixtra®, GlaxoSmithKline) and CS-11(22)-FXa (Hyphen Biomed) containing solution and substrate hydrolysis kinetic was triggered by addition of factor Xa (Stago BNL) to a final volume of 100 μL containing 51 nM antithrombin, 510 nM annonacinone, 200 μM chromogenic substrate, 5 μM fondaparinux and 2 nM factor Xa.

PAI-1 D95A = tested on: T6, PAI-1 D95A; experiment: chromogenic screening assay with PAI-1 mutant D95A; format: biochemical; conditions: ratio of kapp relative to WT (100%)
T6 construct: made in house
Protocol: as §1, §2

PAI-1 [3] = tested on: T2, PAI-1; experiment: native PAGE analysis of PAI-1 polymerization; format: biochemical, human; conditions: increasing concentrations up to 50 μM, 30 min 37 °C
Protocol: PAI-1 (1 μM) was mixed with various concentration of annonacinone or DMSO 1% for 30 min at 37 °C. Samples were mixed with 1/3 volume of native gel sample buffer or LDS sample buffer. The former were subjected to BN-PAGE and the latter were fractioned by SDS-PAGE. Proteins band were visualized by silver staining.

PAI-1 T94A = tested on: T7, PAI-1 T94A; experiment: chromogenic screening assay with PAI-1 mutant T94A; format: biochemical
T7 construct: made in house
Protocol: as §1, §2

[4] = ratio of kapp relative to WT (100%)

T3 sequence (P05121 24-402): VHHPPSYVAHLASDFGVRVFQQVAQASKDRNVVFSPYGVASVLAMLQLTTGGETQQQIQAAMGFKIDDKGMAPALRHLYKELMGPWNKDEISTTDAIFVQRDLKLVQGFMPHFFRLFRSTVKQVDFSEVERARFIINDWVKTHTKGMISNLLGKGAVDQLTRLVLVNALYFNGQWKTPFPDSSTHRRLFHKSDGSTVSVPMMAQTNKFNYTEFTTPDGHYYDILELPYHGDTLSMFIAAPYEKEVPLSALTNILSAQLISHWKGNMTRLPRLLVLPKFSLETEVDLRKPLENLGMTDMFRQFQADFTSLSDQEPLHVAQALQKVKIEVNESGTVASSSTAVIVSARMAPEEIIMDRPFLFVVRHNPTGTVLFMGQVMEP

SMILES: CCCCCCCCCCCC[C@@H](O)[C@H]1CC[C@H]([C@H](O)CCCCC(=O)CCCCC[C@@H](O)CC2=C[C@H](C)OC2=O)O1 [Annonacinone]
- kapp Annonacinone 50 μM (PAI-1 R118A; DMSO 1% 6,0 ± 0,9 × 10^−3, n = 4): 3,4 ± 0,3 × 10^−4 s^−1
- Annonacinone activity 50 μM (% WT) (PAI-1 R118A; [4]): 264 ± 40 % WT
- effect on latency transition of PAI-1 (PAI-1 [1]): No effects
- kapp Annonacinone 50 μM (PAI-1 [2]; PAI-1 WT (Table 2 series), DMSO 1% 6,5 ± 0,6 × 10^−3, n = 4): 9,6 ± 1,0 × 10^−4 s^−1
- IC50 (PAI-1 [2]; chromogenic screening assay, without vitronectin, n = 3, read-out: IC50): 9 ± 1 µM
- kapp 50 μM (apparent rate constant of tPA inhibition by PAI-1) (PAI-1 [2]; compound 50 μM, 1% DMSO, PAI-1 20 nM, tPA 10 nM, DMSO 1% control 4.4 ± 0.3 × 10^-3, n = 3): 6.4 ± 0.7 × 10^-4 s^-1
- effect on PAI-1/tPA covalent complex formation (PAI-1/tPA complex): concentration-dependent inhibition
- kapp of factor Xa inhibition by fondaparinux-bound antithrombin (human antithrombin): 0.0083 s⁻¹
- Annonacinone activity 50 μM (% WT) (PAI-1 D95A): 163 ± 24 % WT
- effect on PAI-1 polymerization (PAI-1 [3]): did not permit to show formation of PAI-1 polymers
- kapp Annonacinone 50 μM (PAI-1 T94A; DMSO 1% 6,6 ± 0,9 × 10^−3, n = 4): 2,3 ± 0,4 × 10^−3 s^−1
- Annonacinone activity 50 μM (% WT) (PAI-1 T94A; [4]): 42 ± 6 % WT
